Measured values: ChEMBL document CHEMBL4304802, “Novel promising 4-anilinoquinazoline-based derivatives as multi-target RTKs inhibitors: Design, molecular docking, synthesis, and antitumor activities in vitro and vivo” (Bioorg Med Chem, 2019)
One block for each compound: values may come before it. Active and inactive are the calls of the source. No cut-off for these calls is given here.

Legend:
HepG2 [1] = assay: Antiproliferative activity against human HepG2 cells incubated for 72 hrs by MTT assay; format: functional, cell-based; details: HepG2, 72 h
SH-SY5Y = assay: Antiproliferative activity against human SH-SY5Y cells incubated for 72 hrs by MTT assay; format: functional, cell-based
A549 = assay: Antiproliferative activity against human A549 cells incubated for 72 hrs by MTT assay; format: functional, cell-based; details: A549, 72 h
MCF7 = assay: Antiproliferative activity against human MCF7 cells incubated for 72 hrs by MTT assay; format: functional, cell-based; details: MCF7, 72 h
DU-145 = assay: Antiproliferative activity against human DU145 cells incubated for 72 hrs by MTT assay; format: functional, cell-based; details: DU-145, 72 h
[2] = Cytotoxicity against human CCC-HPF1 cells assessed as decrease in cell viability incubated for 72 hrs by MTT assay; format: cell-based; details: CCC-HPF-1, 72 h
[3] = molecular target: Epidermal growth factor receptor (Homo sapiens, UniProt P00533); assay: Inhibition of EGFR (unknown origin) using TK substrate incubated for 60 mins by FRET assay
Chain of Epidermal growth factor receptor (P00533 whole entry): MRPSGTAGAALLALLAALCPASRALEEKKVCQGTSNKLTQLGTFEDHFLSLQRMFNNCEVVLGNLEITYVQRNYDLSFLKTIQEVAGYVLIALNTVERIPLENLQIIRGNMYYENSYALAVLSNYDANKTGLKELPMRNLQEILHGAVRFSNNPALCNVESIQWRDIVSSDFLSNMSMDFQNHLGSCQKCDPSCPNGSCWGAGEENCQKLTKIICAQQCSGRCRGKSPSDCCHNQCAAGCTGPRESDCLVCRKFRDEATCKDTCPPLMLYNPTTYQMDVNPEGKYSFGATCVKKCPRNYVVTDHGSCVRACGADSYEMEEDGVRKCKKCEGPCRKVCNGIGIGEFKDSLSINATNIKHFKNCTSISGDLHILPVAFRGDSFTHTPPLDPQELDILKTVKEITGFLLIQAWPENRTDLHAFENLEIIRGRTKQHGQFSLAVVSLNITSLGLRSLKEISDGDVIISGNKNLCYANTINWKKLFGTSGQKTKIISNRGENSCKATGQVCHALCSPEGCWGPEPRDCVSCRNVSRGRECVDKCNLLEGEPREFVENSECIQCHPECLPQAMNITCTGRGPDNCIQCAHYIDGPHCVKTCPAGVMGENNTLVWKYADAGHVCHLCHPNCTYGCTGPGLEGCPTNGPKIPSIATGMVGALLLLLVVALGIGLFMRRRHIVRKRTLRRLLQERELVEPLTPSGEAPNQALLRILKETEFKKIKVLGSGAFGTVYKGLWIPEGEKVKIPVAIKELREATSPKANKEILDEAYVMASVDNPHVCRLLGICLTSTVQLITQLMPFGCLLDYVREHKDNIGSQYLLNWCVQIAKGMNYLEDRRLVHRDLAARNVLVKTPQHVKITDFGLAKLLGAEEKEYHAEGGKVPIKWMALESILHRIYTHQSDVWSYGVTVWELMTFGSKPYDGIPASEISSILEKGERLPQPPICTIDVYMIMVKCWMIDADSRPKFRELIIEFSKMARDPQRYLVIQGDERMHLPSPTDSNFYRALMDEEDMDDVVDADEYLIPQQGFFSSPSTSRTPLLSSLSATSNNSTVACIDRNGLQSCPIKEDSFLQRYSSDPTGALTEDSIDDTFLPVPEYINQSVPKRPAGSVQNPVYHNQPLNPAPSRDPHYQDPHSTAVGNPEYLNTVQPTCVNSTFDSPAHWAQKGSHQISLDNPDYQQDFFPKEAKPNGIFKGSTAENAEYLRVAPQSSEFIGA

[4] = molecular target: Vascular endothelial growth factor receptor 2 (Homo sapiens, UniProt P35968); assay: Inhibition of VEGFR2 (unknown origin) using TK substrate incubated for 60 mins by FRET assay
Chain of Vascular endothelial growth factor receptor 2 (P35968 whole entry): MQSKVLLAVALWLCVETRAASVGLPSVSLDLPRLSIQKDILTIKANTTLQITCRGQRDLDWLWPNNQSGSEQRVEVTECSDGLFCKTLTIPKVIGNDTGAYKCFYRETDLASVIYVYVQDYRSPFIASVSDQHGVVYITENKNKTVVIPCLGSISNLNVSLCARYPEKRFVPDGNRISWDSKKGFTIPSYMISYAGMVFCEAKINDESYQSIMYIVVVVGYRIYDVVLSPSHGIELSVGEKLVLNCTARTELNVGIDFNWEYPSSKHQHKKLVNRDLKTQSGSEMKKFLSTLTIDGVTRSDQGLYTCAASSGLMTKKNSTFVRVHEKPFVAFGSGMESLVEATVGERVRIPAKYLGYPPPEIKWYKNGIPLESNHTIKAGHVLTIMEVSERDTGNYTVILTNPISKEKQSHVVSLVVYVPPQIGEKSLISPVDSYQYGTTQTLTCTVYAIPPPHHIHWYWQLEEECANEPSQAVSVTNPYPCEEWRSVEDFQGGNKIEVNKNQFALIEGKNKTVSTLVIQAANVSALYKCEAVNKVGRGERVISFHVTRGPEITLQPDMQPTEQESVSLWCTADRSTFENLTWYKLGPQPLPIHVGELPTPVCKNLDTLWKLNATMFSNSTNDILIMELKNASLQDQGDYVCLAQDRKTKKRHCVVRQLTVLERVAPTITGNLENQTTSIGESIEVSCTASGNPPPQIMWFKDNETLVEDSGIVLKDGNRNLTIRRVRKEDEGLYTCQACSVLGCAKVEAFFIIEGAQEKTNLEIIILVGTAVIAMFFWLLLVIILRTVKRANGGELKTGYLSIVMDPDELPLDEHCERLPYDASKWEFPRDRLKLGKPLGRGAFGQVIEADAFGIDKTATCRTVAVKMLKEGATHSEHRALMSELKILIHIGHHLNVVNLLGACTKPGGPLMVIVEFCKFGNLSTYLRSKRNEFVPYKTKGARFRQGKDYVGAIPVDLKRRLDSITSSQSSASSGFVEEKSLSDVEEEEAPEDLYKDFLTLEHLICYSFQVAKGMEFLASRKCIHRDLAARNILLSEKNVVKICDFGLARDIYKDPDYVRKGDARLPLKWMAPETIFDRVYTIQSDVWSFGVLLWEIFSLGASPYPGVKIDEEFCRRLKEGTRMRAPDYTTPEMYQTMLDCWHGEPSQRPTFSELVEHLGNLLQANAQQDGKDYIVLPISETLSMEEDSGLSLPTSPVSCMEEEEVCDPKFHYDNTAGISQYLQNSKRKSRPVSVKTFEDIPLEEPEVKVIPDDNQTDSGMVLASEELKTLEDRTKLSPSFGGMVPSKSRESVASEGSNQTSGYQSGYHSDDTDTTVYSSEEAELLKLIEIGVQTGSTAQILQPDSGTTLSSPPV

[5] = molecular target: Platelet-derived growth factor receptor beta (Homo sapiens, UniProt P09619); assay: Inhibition of PDGFRbeta (unknown origin) using TK substrate incubated for 60 mins by FRET assay
Chain of Platelet-derived growth factor receptor beta (P09619 whole entry): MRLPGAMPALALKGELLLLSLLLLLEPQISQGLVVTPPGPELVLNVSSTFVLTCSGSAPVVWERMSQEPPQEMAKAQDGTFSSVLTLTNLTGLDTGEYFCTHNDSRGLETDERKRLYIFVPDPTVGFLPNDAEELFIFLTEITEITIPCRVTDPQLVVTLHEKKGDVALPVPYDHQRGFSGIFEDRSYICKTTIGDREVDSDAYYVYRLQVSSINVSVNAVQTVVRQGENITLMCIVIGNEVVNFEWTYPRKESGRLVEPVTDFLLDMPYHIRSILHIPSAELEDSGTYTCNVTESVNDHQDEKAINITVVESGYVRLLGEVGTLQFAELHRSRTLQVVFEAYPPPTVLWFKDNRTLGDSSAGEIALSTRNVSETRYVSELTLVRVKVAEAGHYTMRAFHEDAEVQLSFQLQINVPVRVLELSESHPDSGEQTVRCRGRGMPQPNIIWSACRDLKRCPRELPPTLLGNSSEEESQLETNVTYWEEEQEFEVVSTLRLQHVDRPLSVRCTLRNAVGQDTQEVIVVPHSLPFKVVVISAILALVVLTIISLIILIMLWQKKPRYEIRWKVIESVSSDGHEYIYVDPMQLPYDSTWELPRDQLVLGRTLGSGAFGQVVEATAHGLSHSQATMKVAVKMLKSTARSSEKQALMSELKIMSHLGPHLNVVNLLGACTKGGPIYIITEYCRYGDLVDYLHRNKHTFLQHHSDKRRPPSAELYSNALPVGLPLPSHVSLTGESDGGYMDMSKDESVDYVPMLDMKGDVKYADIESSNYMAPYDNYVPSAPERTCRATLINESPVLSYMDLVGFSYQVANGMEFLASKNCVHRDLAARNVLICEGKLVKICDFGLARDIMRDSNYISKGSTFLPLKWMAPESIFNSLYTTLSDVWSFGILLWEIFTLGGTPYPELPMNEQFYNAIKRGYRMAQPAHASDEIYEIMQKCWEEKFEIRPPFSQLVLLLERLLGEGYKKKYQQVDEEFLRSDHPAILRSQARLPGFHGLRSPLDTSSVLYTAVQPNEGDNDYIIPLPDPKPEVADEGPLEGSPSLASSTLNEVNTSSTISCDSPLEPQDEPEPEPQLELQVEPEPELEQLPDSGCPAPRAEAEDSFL

HepG2 [6] = assay: Induction of apoptosis in human HepG2 cells assessed as viable cells at 0.5 times IC50 incubated for 48 hrs by Annexin V-FITC and PI staining based flow cytometric analysis (reference value: 93.4%); format: functional
HepG2 [7] = assay: Induction of apoptosis in human HepG2 cells assessed as early apoptotic cells at 0.5 times IC50 incubated for 48 hrs by Annexin V-FITC and PI staining based flow cytometric analysis (reference value: 1.75%); format: functional
HepG2 [8] = assay: Induction of apoptosis in human HepG2 cells assessed as late apoptotic cells at 0.5 times IC50 incubated for 48 hrs by Annexin V-FITC and PI staining based flow cytometric analysis (reference value: 3.47%); format: functional
HepG2 [9] = assay: Induction of apoptosis in human HepG2 cells assessed as necrotic cells at 0.5 times IC50 incubated for 48 hrs by Annexin V-FITC and PI staining based flow cytometric analysis (reference value: 1.36%); format: functional
HepG2 [10] = assay: Induction of apoptosis in human HepG2 cells assessed as viable cells at IC50 incubated for 48 hrs by Annexin V-FITC and PI staining based flow cytometric analysis (reference value: 93.4%); format: functional
HepG2 [11] = assay: Induction of apoptosis in human HepG2 cells assessed as early apoptotic cells at IC50 incubated for 48 hrs by Annexin V-FITC and PI staining based flow cytometric analysis (reference value: 1.75%); format: functional
HepG2 [12] = assay: Induction of apoptosis in human HepG2 cells assessed as late apoptotic cells at IC50 incubated for 48 hrs by Annexin V-FITC and PI staining based flow cytometric analysis (reference value: 3.47%); format: functional
HepG2 [13] = assay: Induction of apoptosis in human HepG2 cells assessed as necrotic cells at IC50 incubated for 48 hrs by Annexin V-FITC and PI staining based flow cytometric analysis (reference value: 1.36%); format: functional
HepG2 [14] = assay: Induction of apoptosis in human HepG2 cells assessed as viable cells at 2 times IC50 incubated for 48 hrs by Annexin V-FITC and PI staining based flow cytometric analysis (reference value: 93.4%); format: functional
HepG2 [15] = assay: Induction of apoptosis in human HepG2 cells assessed as early apoptotic cells at 2 times IC50 incubated for 48 hrs by Annexin V-FITC and PI staining based flow cytometric analysis (reference value: 1.75%); format: functional
HepG2 [16] = assay: Induction of apoptosis in human HepG2 cells assessed as late apoptotic cells at 2 times IC50 incubated for 48 hrs by Annexin V-FITC and PI staining based flow cytometric analysis (reference value: 3.47%); format: functional
HepG2 [17] = assay: Induction of apoptosis in human HepG2 cells assessed as necrotic cells at 2 times IC50 incubated for 48 hrs by Annexin V-FITC and PI staining based flow cytometric analysis (reference value: 1.36%); format: functional
HepG2 [18] = assay: Induction of apoptosis in human HepG2 cells assessed as cell shrinkage at 2 to 8 uM incubated for 48 hrs by optical microscopic method; format: functional, cell-based
HepG2 [19] = assay: Induction of apoptosis in human HepG2 cells assessed as decrease in cell number at 2 to 8 uM incubated for 48 hrs by optical microscopic method; format: functional, cell-based
HepG2 [20] = assay: Induction of apoptosis in human HepG2 cells assessed as cell detachment at 2 to 8 uM incubated for 48 hrs by optical microscopic method; format: functional, cell-based
HepG2 [21] = assay: Disruption of mitochondrial membrane potential in human HepG2 cells at 1.5 uM to 5 uM incubated for 48 hrs by JC-1 dye based fluorescence spectrophotometric analysis; format: functional, cell-based
HepG2 [22] = assay: Disruption of mitochondrial membrane potential in human HepG2 cells assessed as appearance of cell desquamation at 1.5 uM to 5 uM incubated for 48 hrs by JC-1 dye based LSCM analysis; format: functional
HepG2 [23] = assay: Disruption of mitochondrial membrane potential in human HepG2 cells assessed as cell shriveled at 1.5 uM to 5 uM incubated for 48 hrs by JC-1 dye based LSCM analysis; format: functional
HepG2 [24] = assay: Induction of ROS generation in human HepG2 cells assessed as increase in green fluorescence incubated for 48 hrs by DCFH-DA staining based LSCM method; format: functional, cell-based
HepG2 [25] = assay: Antitumor activity against human HepG2 cells xenografted in nude mouse assessed as suppression of tumor volume at 20 to 40 mg/kg administrated daily for 50 days post implantation by vernier caliper analysis; format: functional, organism-based
HepG2 [26] = assay: Antitumor activity against human HepG2 cells xenografted in nude mouse assessed as inhibition of tumor growth administrated daily for 50 days post implantation by vernier caliper analysis; format: functional
HepG2 [27] = assay: Antitumor activity against human HepG2 cells xenografted in nude mouse assessed as inhibition of tumor at 40 mg/kg administrated daily for 30 days post implantation by vernier caliper analysis relative to control; format: functional; details: HepG2, 720 h
[28] = Toxicity in nude mouse xenografted with human HepG2 cells assessed as change in body weight at 20 to 30 mg/kg administrated daily for 50 days post implantation; format: organism-based; details: in vivo, 1200 h
[29] = Toxicity in nude mouse xenografted with human HepG2 cells assessed as change in body weight at 40 mg/kg administrated daily for 50 days post implantation; format: organism-based; details: in vivo, 1200 h

IC50 (HepG2 [1]): 50.2 µM
IC50 (SH-SY5Y): > 100 µM
IC50 (A549): 28.4 µM
IC50 (MCF7): > 100 µM
IC50 (DU-145): 85.6 µM
Structure (SMILES): O=[N+]([O-])c1ccc(COc2ccccc2Nc2ncnc3cc4c(cc23)OCCOCCO4)cc1

IC50 (HepG2 [1]): > 100 µM
IC50 (SH-SY5Y): 23.9 µM
IC50 (A549): > 100 µM
IC50 (MCF7): 8.34 µM
IC50 (DU-145): > 100 µM
Structure (SMILES): c1ccc(COc2ccc(Nc3ncnc4cc5c(cc34)OCCOCCOCCO5)cc2)cc1
IC50 [2]: > 100 µM

IC50 (HepG2 [1]): 65.3 µM
IC50 (SH-SY5Y): 36.6 µM
IC50 (A549): 15.5 µM
IC50 (MCF7): 42.4 µM
IC50 (DU-145): > 100 µM
Structure (SMILES): O=[N+]([O-])c1ccc(COc2cccc(Nc3ncnc4cc5c(cc34)OCCOCCO5)c2)cc1

IC50 (HepG2 [1]): 55.5 µM
IC50 (SH-SY5Y): 39.3 µM
IC50 (A549): 43.9 µM
IC50 (MCF7): > 100 µM
IC50 (DU-145): > 100 µM
Structure (SMILES): c1ccc(COc2ccc(Nc3ncnc4cc5c(cc34)OCCOCCO5)cc2)cc1

IC50 (HepG2 [1]): > 100 µM
IC50 (SH-SY5Y): 55.2 µM
IC50 (A549): 8.62 µM
IC50 (MCF7): 39.7 µM
IC50 (DU-145): > 100 µM
Structure (SMILES): O=[N+]([O-])c1ccc(COc2ccc(Nc3ncnc4cc5c(cc34)OCCOCCO5)cc2)cc1
IC50 [2]: 47.1 µM

IC50 (HepG2 [1]): > 100 µM
IC50 (SH-SY5Y): 19.3 µM
IC50 (A549): > 100 µM
IC50 (MCF7): > 100 µM
IC50 (DU-145): > 100 µM
Structure (SMILES): FC(F)(F)c1ccc(COc2cccc(Nc3ncnc4cc5c(cc34)OCCOCCO5)c2)cc1

IC50 (HepG2 [1]): > 100 µM
IC50 (SH-SY5Y): > 100 µM
IC50 (A549): > 100 µM
IC50 (MCF7): > 100 µM
IC50 (DU-145): > 100 µM
Structure (SMILES): FC(F)(F)c1ccc(COc2ccccc2Nc2ncnc3cc4c(cc23)OCCOCCO4)cc1

IC50 (HepG2 [1]): > 100 µM
IC50 (SH-SY5Y): 30.4 µM
IC50 (A549): > 100 µM
IC50 (MCF7): > 100 µM
IC50 (DU-145): > 100 µM
Structure (SMILES): FC(F)(F)c1ccc(COc2ccc(Nc3ncnc4cc5c(cc34)OCCOCCO5)cc2)cc1

IC50 (HepG2 [1]): > 100 µM
IC50 (SH-SY5Y): > 100 µM
IC50 (A549): > 100 µM
IC50 (MCF7): > 100 µM
IC50 (DU-145): > 100 µM
Structure (SMILES): O=[N+]([O-])c1ccc(COc2cccc(Nc3ncnc4cc5c(cc34)OCCOCCOCCO5)c2)cc1

IC50 (HepG2 [1]): 9.82 µM
IC50 (SH-SY5Y): 8.42 µM
IC50 (A549): 19.8 µM
IC50 (MCF7): 6.41 µM
IC50 (DU-145): 13.8 µM
Structure (SMILES): O=[N+]([O-])c1ccc(COc2cccc(Nc3ncnc4cc5c(cc34)OCCOCCOCCOCCO5)c2)cc1
IC50 [2]: > 100 µM

IC50 (HepG2 [1]): 60.8 µM
IC50 (SH-SY5Y): 75.5 µM
IC50 (A549): 29.9 µM
IC50 (MCF7): > 100 µM
IC50 (DU-145): > 100 µM
Structure (SMILES): O=[N+]([O-])c1ccc(COc2ccccc2Nc2ncnc3cc4c(cc23)OCCOCCOCCO4)cc1

IC50 (HepG2 [1]): 3.34 µM
IC50 (SH-SY5Y): 2.14 µM
IC50 (A549): 8.56 µM
IC50 (MCF7): 10 µM
IC50 (DU-145): 8.8 µM
IC50 [3]: 0.385 µM
IC50 [4]: 0.0464 µM
IC50 [5]: 0.674 µM
Structure (SMILES): FC(F)(F)c1ccc(COc2ccc(Nc3ncnc4cc5c(cc34)OCCOCCOCCOCCO5)cc2)cc1
IC50 [2]: 38.2 µM
Activity (HepG2 [6]): 71.3%
Activity (HepG2 [7]): 3.72%
Activity (HepG2 [8]): 24%
Activity (HepG2 [9]): 1.01%
Activity (HepG2 [10]): 35%
Activity (HepG2 [11]): 8.89%
Activity (HepG2 [12]): 52.5%
Activity (HepG2 [13]): 3.61%
Activity (HepG2 [14]): 29.1%
Activity (HepG2 [15]): 8.27%
Activity (HepG2 [16]): 61.3%
Activity (HepG2 [17]): 1.35%
Activity (HepG2 [18]): Active
Activity (HepG2 [19]): Active
Activity (HepG2 [20]): Active
Activity (HepG2 [21]): Active
Activity (HepG2 [22]): Active
Activity (HepG2 [23]): Active
Activity (HepG2 [24]): Dose-dependent effect
Activity (HepG2 [25]): Active
inhibition (HepG2 [26]): Dose-dependent effect
inhibition in vivo at 40 mg/kg (HepG2 [27]): 100%
Activity [28]: Non-Toxic
Activity [29]: Toxic
